Test results from the PolyMetriX glass transition set.
± gives the standard deviation of the reports.

| glass transition temperature [°C] | Compound |
| --- | --- |
| 345.00 | *c1ccc(-c2nc3cc(Oc4ccc(NC(=O)c5cc(C(=O)Nc6ccc(Oc7ccc8nc(-c9ccccc9)c(-c9ccc(N%10C(=O)c%11ccc%12c%13c(ccc(c%11%13)C%10=O)C(=O)N(*)C%12=O)cc9)nc8c7)cc6)cc(N6C(=O)c7c(Cl)c(Cl)c(Cl)c(Cl)c7C6=O)c5)cc4)ccc3nc2-c2ccccc2)cc1 (repeat unit) |
| 2.10 | *CCCCCCOC(=O)OCCCCOC(=O)OCCCCCCOc1ccc(C(=O)c2ccc(O*)cc2)cc1 (repeat unit) |
| 295.00 | *C(=O)Nc1ccc(-c2cc(-c3ccccc3)cc(-c3ccc(NC(=O)c4ccc5c(c4)C(=O)N(c4ccc(Oc6cccc7c(N8C(=O)c9ccc(*)cc9C8=O)cccc67)cc4)C5=O)cc3)n2)cc1 (repeat unit) |
| 240.00 | *C(=O)c1ccc2c(c1)C(=O)N(c1cccc(C(=O)c3ccc(C(=O)c4cccc(N5C(=O)c6ccc(*)cc6C5=O)c4)cc3)c1)C2=O (repeat unit) |
| 40.00 | *CCOCCOCCOCCOC(=O)c1ccc(-c2ccc(-c3ccc(C(=O)O*)cc3)cc2)cc1 (repeat unit) |
| 304.00 | *c1ccc(-c2ccc(-n3c(=O)c4c(C(F)(F)F)c5c(=O)n(*)c(=O)c5c(C(F)(F)F)c4c3=O)cc2C(F)(F)F)c(C(F)(F)F)c1 (repeat unit) |
| 175.00 | *c1ccc(Oc2ccc(N3C(=O)C(Cl)=C(Oc4ccc(C(C)(C)c5ccc(OC6=C(Cl)C(=O)N(*)C6=O)cc5)cc4)C3=O)cc2)cc1 (repeat unit) |
| 15.00 | *O[Si](*)(C)CCCCCCCCCCCOc1ccc(-c2ccc(C(=O)Oc3ccc(C(=O)OC(C)C(=O)OC(C)C(=O)OC(C)C(=O)OCC(C)CC)cc3)cc2)cc1 (repeat unit) |
| 312.00 | *c1ccc(OC(=O)c2ccc(C(=O)Oc3ccc(C4(*)OCc5ccccc54)cc3)cc2)cc1 (repeat unit) |
| 392.00 | *c1ccc(C2(c3ccc(N4C(=O)c5ccc(S(=O)(=O)c6ccc7c(c6)C(=O)N(*)C7=O)cc5C4=O)cc3)c3ccccc3-c3ccccc32)cc1 (repeat unit) |
| -23.50 | *CCOCCOCCOCCOCCOCCOC(=O)c1cccc(C(=O)O*)c1 (repeat unit) |
| 55.00 | *CCCCCCCNC(=O)CCCCCC(=O)N* (repeat unit) |
| 230.00 | *Oc1ccc(NC(=O)c2ccc(-c3ccc(C(=O)Nc4ccc(Oc5ccc(C(C)(C)c6ccc(*)cc6)cc5)cc4)c(C)c3)cc2C)cc1 (repeat unit) |
| 75.00 | *c1ccc(-n2ccc(-c3ccc(-c4ccn(*)n4)cc3)n2)cc1 (repeat unit) |
| 395.00 | *c1ccc(-c2nc3cc4nc(-c5ccccc5)c(*)nc4cc3nc2-c2ccccc2)cc1 (repeat unit) |
| 66.00 | *CC(CO*)(CS(=O)(=O)CCCC)CS(=O)(=O)CCCC (repeat unit) |
| 66.00 | *CCCCOC(=O)c1ccc2cc(C(=O)O*)ccc2c1 (repeat unit) |
| 145.00 | */C=C/c1c(OC(=O)c2ccc(C(=O)Oc3ccc4ccccc4c3/C=C/c3cccc(*)n3)cc2)ccc2ccccc12 (repeat unit) |
| 270.00 | *c1cccc(-c2nc3ccc(Oc4ccc5nc(*)c(-c6ccccc6)nc5c4)cc3nc2-c2ccccc2)c1 (repeat unit) |
| 70.00 | *CC(O)COC(=O)C1CCC(C(=O)OCC(O)COc2ccc(C(C)(C)c3ccc(O*)cc3)cc2)CC1 (repeat unit) |
| 97.50 | *OC(=O)C(Cc1ccccc1)NC(=O)CCCCC(=O)NC(Cc1ccccc1)C(=O)OC1COC2C(*)COC12 (repeat unit) |
| 153.00 | *c1cccc(OCCCCCCOc2cccc(N3C(=O)c4ccc(-c5ccc6c(c5)C(=O)N(*)C6=O)cc4C3=O)c2)c1 (repeat unit) |
| 190.00 | *Oc1cccc(Oc2ccc(C(=O)c3ccc(NC(=O)c4ccc(C(=O)Nc5ccc(C(=O)c6ccc(*)cc6)cc5)cc4)cc3)cc2)c1 (repeat unit) |
| 128.50 | *c1ccc(-c2c(-c3ccc(-c4ccccc4)cc3)cc(-c3ccc(OCCCCCCOc4ccc(-c5cc(-c6ccc(-c7ccccc7)cc6)c(-c6ccc(-n7c(=O)c8cc9c(=O)n(*)c(=O)c9cc8c7=O)cc6)c(-c6ccc(-c7ccccc7)cc6)c5)cc4)cc3)cc2-c2ccc(-c3ccccc3)cc2)cc1 (repeat unit) |
| 169.90 | *c1ccc2c(c1)C(=O)N(c1ccc(Cc3ccc(N4C(=O)c5ccc(C(C)(C)CCCCC(*)(C)C)cc5C4=O)cc3)cc1)C2=O (repeat unit) |

| glass transition temperature [°C] | Compound |
| --- | --- |
| 212.00 | *c1ccc(Oc2ccc(N3C(=O)c4ccc(Oc5ccccc5Oc5ccc6c(c5)C(=O)N(*)C6=O)cc4C3=O)cc2)cc1 (repeat unit) |
| 225.00 | *C(=O)NCCCCCCNC(=O)c1ccc(N2C(=O)c3ccc(*)cc3C2=O)cc1 (repeat unit) |
| 50.00 | *CCCCCCCCNC(=O)CCCCCCCCCCC(=O)N* (repeat unit) |
| 243.00 | *c1ccc(Oc2ccc(C(=O)c3cccc(C(=O)c4ccc(Oc5ccc(-c6c7c(c(*)c8ccccc68)C(=O)N(c6ccc(F)cc6)C7=O)cc5)cc4)c3)cc2)cc1 (repeat unit) |
| 150.00 | *c1ccc(Oc2ccc(C(C)(C)c3ccc(Oc4ccc(N5C(=O)CC(=O)N(*)C5=S)cc4)cc3)cc2)cc1 (repeat unit) |
| 29.00 | *CC(CCCCCCOc1ccc(/N=N/c2ccc(C)cc2)cc1)COC(=O)CCCCC(=O)O* (repeat unit) |
| 128.00 | *Oc1ccc(OC(=O)c2cccc(Sc3ccc(OC(=O)c4ccc(C(=O)Oc5ccc(Sc6cccc(C(*)=O)c6)cc5)cc4)cc3)c2)cc1-c1ccccc1 (repeat unit) |
| -4.00 | *CCCCCCOC(=O)OCCOC(=O)OCCCCCCOc1ccc(Oc2ccc(O*)cc2)cc1 (repeat unit) |
| 277.00 | *Nc1cccc(NC(=O)c2cc(C(*)=O)cc(S(=O)(=O)c3ccccc3)c2)c1 (repeat unit) |
| 200.00 | *Oc1ccc(NC(=O)c2cc(NC(=O)CCCCCN3C(=O)c4ccccc4C3=O)cc(C(=O)Nc3ccc(*)cc3)c2)cc1 (repeat unit) |
| 283.00 | *Oc1c(Br)cc(C2(c3cc(Br)c(OC(*)=O)c(Br)c3)CC3CCC2C3)cc1Br (repeat unit) |
| -23.00 | *CCCCCCCC(=O)OCC1COC(*)O1 (repeat unit) |
| 241.00 | *C1CCC(CC2CCC(N3C(=O)C4C5C=CC(C6C(=O)N(*)C(=O)C56)C4C3=O)C(C)C2)CC1C (repeat unit) |
| 165.00 | *CCCC1(CCCNC(=O)CCC2(CCC(=O)N*)c3ccccc3-c3ccccc32)c2ccccc2-c2ccccc21 (repeat unit) |
| 275.50 | *c1ccc(Oc2cc3ccccc3cc2Oc2ccc(N3C(=O)c4ccc(Oc5ccc6c(c5)C(=O)N(*)C6=O)cc4C3=O)cc2)cc1 (repeat unit) |
| 45.00 | *CC(*)OC(=O)CCCC(=O)c1ccccc1 (repeat unit) |
| 215.00 | *C(=O)Nc1ccc(-c2cc(-c3ccccc3)cc(-c3ccc(NC(=O)c4ccc5c(c4)C(=O)N(c4ccc(NC(=O)Nc6ccc(N7C(=O)c8ccc(*)cc8C7=O)cc6)cc4)C5=O)cc3)n2)cc1 (repeat unit) |
| 230.00 | *c1ccc(C(c2ccc(C#N)cc2)c2ccc(N(*)c3ccc(C)cc3)cc2)cc1 (repeat unit) |
| 244.00 | *c1ccc(Cc2ccc(N3C(=O)c4ccc(-c5ccc(-c6ccc(-c7ccc(-c8ccc(-c9ccc%10c(c9)C(=O)N(*)C%10=O)cc8)cc7)cc6)cc5)cc4C3=O)cc2)cc1 (repeat unit) |
| 188.80 | *Cc1cc(C23CC4CC(CC(C4)C2)C3)cc(CN(*)C)c1O (repeat unit) |
| -24.62 ± 3.6 | *CCCCCCCCCCCCCCC(=O)O* (repeat unit) [poly(pentadecalactone)] |
| 300.00 | *c1ccc(-c2ccc(-c3ccc(-c4cc(-c5ccccc5)c5cc(Oc6ccc7nc(*)cc(-c8ccccc8)c7c6)ccc5n4)cc3)cc2)cc1 (repeat unit) |
| 75.00 | *CC(CCCCCCCCCCCC)COC(=O)NC(=O)c1ccc(C(=O)NC(=O)O*)cc1 (repeat unit) |
| 268.00 | *c1ccc(C(=O)c2ccc(N3C(=O)c4ccc(Oc5ccc(Oc6ccc7c(c6)C(=O)N(*)C7=O)cc5)cc4C3=O)cc2)cc1 (repeat unit) |
| 333.00 | *C1C2CC(C(=O)OCCc3ccc(N(c4ccccc4)c4cccc5ccccc45)cc3)C(C2)C1* (repeat unit) |

| Compound | glass transition temperature [°C] |
| --- | --- |
| */C=C/CC* (repeat unit) [1,4-polybutadiene] | -91.00 ± 5 |
| *C(F)(F)C1(F)C(F)(F)C(*)(F)C1(F)F (repeat unit) | 122.00 |
| *CCCOC(=O)C(C)O* (repeat unit) | -33.00 |
| *O[Si](*)(CCC)CCC (repeat unit) | -77.50 |
| *CC(*)c1ccc(Cl)c(Cl)c1 (repeat unit) | 128.00 |
| *CC(*)c1ccc(C(C)(O)CC)cc1 (repeat unit) | 190.00 |
| *CC(*)C(=O)Oc1ccc(C#N)cc1 (repeat unit) | 92.00 |
| *Cc1ccccc1CSS* (repeat unit) | 39.00 |
| *CC(*)(C)C(=O)OCC(O)CO (repeat unit) | 84.40 |
| *CCCCCCOC(=O)C(CCCCCP(=O)(O)O)C(=O)OCCCCCCOc1ccc(-n2on2-c2ccc(O*)cc2)cc1 (repeat unit) | 17.00 |
| *CC(*)OC(=O)C(Cl)(Cl)Cl (repeat unit) | 59.00 |
| *[Si](*)(C)CCCOCC1COC(C)(C)O1 (repeat unit) | -48.00 |
| *CCCCP(C)(=O)CCCNC(=O)CCCCC(=O)N* (repeat unit) | 59.00 |
| *CC(*)C(=O)Nc1ccccc1 (repeat unit) [Poly(N-phenyl acrylamide)] | 155.92 ± 5.8 |
| *CCN(*)CC (repeat unit) | -32.00 |
